The target in one assay is T1, rat adenine binding GPCR (Rattus norvegicus, UniProt Q7TN49).
T1 sequence (Q7TN49 1-304): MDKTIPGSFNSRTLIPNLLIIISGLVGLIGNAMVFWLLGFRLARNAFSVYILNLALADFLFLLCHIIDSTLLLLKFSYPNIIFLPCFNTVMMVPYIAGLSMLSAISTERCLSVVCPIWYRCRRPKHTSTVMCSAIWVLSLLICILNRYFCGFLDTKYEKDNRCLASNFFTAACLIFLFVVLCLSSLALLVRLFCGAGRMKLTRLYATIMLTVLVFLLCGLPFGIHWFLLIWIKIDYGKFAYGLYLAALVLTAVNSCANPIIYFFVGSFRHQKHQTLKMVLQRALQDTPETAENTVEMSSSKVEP
Put plainly: FLIPR Ca2+ transient assay, agonism, HEK293/Gq chimera cells transiently transfected with rat adenine binding GPCR/pcDNA3. Format: cell-based. Also noted: The full length reading frame was inserted into the mammalian expression vector pcDNA3; expressed in transfected cells; host or cells: HEK293 cells stably transfected with pLEC/Gqi or pLEC/Gqo. The text has this: This assay is based around an instrument called a FLuorescence Imaging Plate Reader ((FLIPR®), Molecular Devices Corporation). In its most common configuration, it excites and measures fluorescence emitted by fluorescein-based dyes. It uses an argon-ion laser to produce high power excitation at 488 nm of a fluorophore, a system of optics to rapidly scan the over the bottom of a 96-/384-well plate and a sensitive, cooled CCD camera to capture the emitted fluorescence. It also contains a 96-/384-well pipetting head allowing the instrument to deliver solutions of test agents into the wells of a 96-/384-well plate. The FLIPR assay is designed to measure fluorescence signals from populations of cells before, during and after addition of compounds, in real time, from all 96-/384-wells simultaneously. […] As described below, calcium transients in cells transfected with adenine binding GPCR were measured using the FLIPR assay in order to measure activation of the receptors by various substrates in order to determine the natural ligand of the receptor.
The full length reading frame was inserted into the mammalian expression vector pcDNA3 (Invitrogen, Carlsbad, Calif., U.S.A.) and the resulting expression construct was transiently transfected with the FuGENE 6 reagent (Roche Molecular Biochemicals, Mannheim, Germany) into HEK293 cells stably transfected (E. Bender, unpublished) with pLEC/Gqi or pLEC/Gqo (Molecular Devices, Sunnyvale, Calif., U.S.A.). The cells were loaded with Fluo-4 (Molecular Probes, Eugene, Oreg., U.S.A.) according to the recommendations of the supplier. […]
Using the FLIPR assay as above, calcium transients were measured in both sets of cells with the transients attributable to the novel GPCR measured as the difference between the two transients. Results are illustrated in FIG. 4. […]

Assay [1] deals with T2, adenine binding rat receptor (Rattus norvegicus, UniProt Q7TN49).
T2 construct: expressed in transfected cells; host or cells: CHO cells, transient, lipofectamine PLUS
T2 sequence (Q7TN49 1-304): T1 sequence (Q7TN49 1-304)
The assay is described as follows: [35S]GTPγS binding on CHO membranes permanently transfected. Conditions: for EC50: read-out: pEC50 (converted); for % stimulation: above basal. Format: biochemical. The method, then: The lipofectamine PLUS method was also used for permanent transfection of CHO cells with slight modifications. One day after the transfection, the medium was replaced with selection medium which was replaced every 2 to 3 days. The cells were grown till colonies appeared (between day 8 and 10) and split to a 175 cm^2 culture flask for further culture and experiments. Monoclonal cell lines were prepared by limited dilution seeding in 96 well plates.
a) Methods—Determination of [^35S ]GTPγS binding to the G-proteins was carried out according to a modified procedure of Lazareno (Methods Mol. Biol., 83:107-116, 1997). These experiments were performed for a first functional evaluation of the receptor on the level of a membrane preparation.
The assay mixture contained 10 and 35 μg of membrane protein for the transfected and wild type CHO cells, respectively.
For testing agonistic activity, 175 μl of diluted membranes was pre-incubated in the buffer described above together with 25 μl of buffer and 25 μl of varying concentrations of the compound in a total volume of 225 μl. After a 20 minute pre-incubation period at 30° C., 25 μl of [^35S]GTPγS was added to a final concentration of 0.25 nM and the assay mixtures were further incubated for 20 minutes at 30° C. Bound and free [^35S]GTPγS were separated by rapid filtration over an UniFilter™-96, GF/B™ under reduced pressure using Filtermate 196 filtration (Packard Company (Netherlands). The amount of bound radioactivity on the filter unit was determined after drying of the filters and scintillant addition (Microscint-O; Packard Company) by liquid scintillation counting.
Basal [^35S]GTPγS binding was measured in absence of compounds. Stimulation by agonist was calculated as the percentage increase above basal levels. The sigmoid agonist concentration-response curves were analyzed by non-linear regression using the GraphPad Prism program. The different concentration points were run in duplicates and the reported data were retrieved from independent experiments.
The first functional characterization of the monoclonal cell lines was performed in [^35S]GTPγS binding experiments. The maximum stimulation of [^35S] GTPγS binding by adenine for each of the 4 selected clones was much higher ([…]) than the that found in the transient transfections confirming the expected better coupling in permanent cell lines (see table 5).

The next assay concerns wild type CHO cells. Put plainly: cAMP measurements on wild type CHO cells. Format: cell-based. Particulars: wild type CHO cells. The method, then:
For permanently transfected CHO cells, cAMP measurements were performed using the indirect RIA kit from NEN (Belgium).
a) Methods: Two days before the experiment the cells were seeded out in a 96 well plate at a density required for approximately 90% confluence at the day of the experiment. After removal of the growth medium, the cells were washed twice with a controlled salt solution (CSS) containing 25 mM Tris-HCl, pH 7.4, 120 mM NaCl, 5.4 mM KCl, 0.8 mM MgCl2, 1.8 mM CaCl2, 15 mM glucose and 15 mg/l phenol red, with an addition of a phosphodiesterase inhibitor IBMX (3-isobutyl-1-methylxanthine) in a concentration of 1 mM and […]. Basal cAMP levels were determined in CSS containing these additives and maximally stimulated cAMP levels were determined in the presence of 50 μM forskolin. For testing agonistic activity, the compounds were incubated with the cells for 20 minutes at 37° C. The reaction was stopped by addition of ice cold HClO4 (1N) and stored at −20° C. After thawing the mixtures were neutralized with an equivalent amount of phosphate buffered KOH, left at 4° C. during 30 minutes to allow the salts to precipitate and centrifuged at 2,000 RPM for 5 minutes at 4° C.
For the quantitative determination of the cAMP levels, a 96-well Flashplate radioimmunoassay kit from NEN was used, according to the protocol of the supplier. The sigmoid concentration response curves (duplicate points) were analyzed using the GraphPad Prism program.

SMILES strings stand for the structures. pEC50: −log10 of the molar value. Like-named read-outs stand apart in the source and are kept apart here.

As for `Nc1ncnc2c1ncn2[C@@H]1O[C@H](COP(=O)(O)O)[C@@H](O)[C@H]1O` [AMP], the “agonism of nucleoside and nucleotide derivatives of adenine” value at rat adenine binding GPCR (at high concentrations (>3.3 μM)) is on record as “weak partial agonism”.
Take `Nc1ncnc2nc[nH]c12` [Adenine, adenine]: the pEC50 (in general, −log10 of the EC50, conventionally taken in molar units) in assay [1] (4 selected clones, read-out: mean EC50) was 7.21. The EC50 is 64.6 nM in assay [1] (Clone 26 (MP1)), 49 nM in assay [1] (Clone 28 (MP9)), 79.4 nM in assay [1] (Clone 29 (MP9)) and 57.5 nM in assay [1] (Clone 30 (MP9)). Moreover, the “% stimulation” value in assay [1] (Clone 26 (MP1)) was 632%; in assay [1] (Clone 28 (MP9)), 657%; in assay [1] (Clone 29 (MP9)), 527%; in assay [1] (Clone 30 (MP9)), 534%. The cAMP response entry in the assay with wild type CHO cells was “did not show any response”. Also, on rat adenine binding GPCR (HEK293/Gaqo cells, 3.3 nM-33 μM, difference to empty-vector cells), the “calcium transients (agonistic activity)” value is recorded as “dose responsive calcium transient”.

Values taken from patent publication US20030157516A1, “G protein coupled receptor” (priority 2000, published 2003).
